Laboratory results: patent US11479802B2, “Assays for screening activity of modulators of members of the hydroxy steroid (17-beta) dehydrogenase (HSD17B) family” (Regeneron Pharmaceuticals, Inc., priority 2017, dated 2022)
Structures can show the parent of a compound that is named as a salt.

Biological target: T1, human HSD17B13 (Homo sapiens, UniProt Q7Z5P4)
T1 sequence (Q7Z5P4 20-300): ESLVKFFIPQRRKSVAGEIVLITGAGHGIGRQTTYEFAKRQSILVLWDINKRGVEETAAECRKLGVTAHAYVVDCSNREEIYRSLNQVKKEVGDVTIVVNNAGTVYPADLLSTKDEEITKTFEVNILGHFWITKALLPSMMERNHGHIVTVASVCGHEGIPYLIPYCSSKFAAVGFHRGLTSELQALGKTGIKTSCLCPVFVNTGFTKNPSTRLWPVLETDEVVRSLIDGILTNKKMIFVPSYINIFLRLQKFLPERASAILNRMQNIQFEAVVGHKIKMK
Test: Substrate screening of steroid and bioactive lipid libraries against purified recombinant HSD17B13 (NADH-linked luciferase assay)
Assay type: biochemical
Details: for HSD17B13 Enzymatic Activity Relative Light Units: 500 μM NAD+, 100 ng enzyme, 3 hours at 23° C.; for HSD17B13 Enzymatic Activity Percent Estradiol Control: normalized to 50 μM estradiol after subtraction of 5% DMSO
Method: To understand the functional consequences of premature truncation of the HSD17B13 protein due to rs72613567:TA (the associated variant, rs72613567, is an insertion of an adenine adjacent to the donor splice site of exon six (TA allele)), the enzymatic activity of isoforms A and D was evaluated in vitro using recombinant protein and nicotinamide […] dinucleotide as cofactor. Reactions were performed in a final volume of 40 μl of assay buffer (0.2 M Tris-HCl, pH 7.5) which contained 500 μM NAD^+, 5 μM bioactive lipid or 50 μM steroid (all in a final concentration of 5% DMSO), and 100 ng of recombinant human HSD17B13. Reactions were incubated for 3 hours, at 23° C., after which an equal volume detection reagent was added. Following a 1 hour incubation at 23° C., the relative light units (RLUs) were measured on an Envision Plate Reader (Perkin Elmer). Raw RLU values were normalized as percent of control (50 μM estradiol) following subtraction of negative control (5% DMSO) using the following formula: Percent of control (POC)=100×(Sample (RLU)−Negative CTRLaverage)/(Positive CTRLaverage−Negative CTRLaverage).

[1] = Bioactive Lipid Library, 5 μM bioactive lipid (Estradiol Control 50 μM)
[2] = Bioactive Lipid Library, 5 μM bioactive lipid

Row | Compound | HSD17B13 Enzymatic Activity Relative Light Units [1] | HSD17B13 Enzymatic Activity Percent Estradiol Control [2] | HSD17B13 Enzymatic Activity Relative Light Units (Steroid Library, 50 μM steroid) | HSD17B13 Enzymatic Activity Percent Estradiol Control (Steroid Library, 50 μM steroid)
1 | CCCCC[C@H](O)/C=C/C=C\C/C=C\C/C=C\CCCC(=O)O (racemic) [(±)15-HETE] | 47880 RLU | 30.81% |  | 
2 | CC/C=C\C[C@H]1O[C@H]1C/C=C\C/C=C\C/C=C\C/C=C\CCC(=O)O (racemic) [(±)16(17)-EpDPA] | 274120 RLU | −0.71% |  | 
3 | CCC(O)C(O)C/C=C\C/C=C\C/C=C\C/C=C\CCCC(=O)O (racemic) [(±)17(18)-DiHETE] | 369120 RLU | 3.33% |  | 
4 | CCC1OC1C/C=C\C/C=C\C/C=C\C/C=C\CCCC(=O)O (racemic) [(±)17(18)-EpETE] | 316240 RLU | 2.19% |  | 
5 | CC/C=C\CC(O)/C=C/C=C\C/C=C\C/C=C\C/C=C\CCC(=O)O (racemic) [(±)17-HDHA] | 492440 RLU | 15.29% |  | 
6 | CCC(O)C(O)C/C=C\C/C=C\C/C=C\C/C=C\C/C=C\CCC(=O)O (racemic) [(±)19(20)-DiHDPA] | 827600 RLU | 37.95% |  | 
7 | CC[C@H]1O[C@H]1C/C=C\C/C=C\C/C=C\C/C=C\C/C=C\CCC(=O)O (racemic) [(±)19(20)-EpDPA] | 300600 RLU | 1.38% |  | 
8 | CCC(O)/C=C/C=C\C/C=C\C/C=C\C/C=C\C/C=C\CCC(=O)O (racemic) [(±)20-HDHA] | 1400640 RLU | 82.82% |  | 
9 | CC(C)OC(=O)CCC/C=C/C[C@@H]1[C@@H](/C=C/[C@@H](O)COc2cccc(C(F)(F)F)c2)[C@H](O)C[C@@H]1O (relative stereo) [5-trans Fluprostenol isopropyl ester] | 551400 RLU | 21.21% |  | 
10 | CCCCC/C=C\C[C@@H](O)/C=C/C=C/C=C/[C@@H](O)CCCC(=O)O (relative stereo) [6-trans Leukotriene B4] | 1209480 RLU | 68.61% |  | 
11 | CC/C=C/C[C@H](O)/C=C/[C@@H]1[C@@H](C/C=C\CCCC(=O)O)[C@@H](O)C[C@H]1O (relative stereo) [17-trans Prostaglandin F3α] | 371720 RLU | 7.01% |  | 
12 | CCCCC[C@H](O)/C=C/[C@H]1[C@H](O)CC(=O)[C@@H]1CCCCC(=O)O [2,3-dinor Prostaglandin E1] | 344240 RLU | 4.83% |  | 
13 | CCCCC[C@H](O)/C=C/[C@H]1OC(O)C[C@H](O)[C@@H]1CCCCC(=O)O (stereo partly shown) [2,3-dinor Thromboxane B1] | 364840 RLU | 3.01% |  | 
14 | CCCCC[C@H](O)/C=C/[C@@H]1[C@@H](CC(=O)CCC(=O)O)[C@@H](O)C[C@H]1O [2,3-dinor-6-keto Prostaglandin F1α (sodium salt)] | 341800 RLU | 4.64% |  | 
15 | CCCCC[C@H](O)/C=C/[C@@H]1[C@H](C/C=C\CC(=O)O)[C@@H](O)C[C@H]1O [2,3-dinor-8-iso Prostaglandin F2α] | 230040 RLU | −4.19% |  | 
16 | CCCCC[C@H](O)/C=C/[C@@H]1[C@@H](C/C=C\CC(=O)O)[C@@H](O)C[C@@H]1O [2,3-dinor-11β-Prostaglandin F2α] | 265000 RLU | −1.43% |  | 
17 | C[C@]12CC[C@H]3[C@@H]([C@H]4C[C@H]4[C@]4(O)C[C@@H](O)CC[C@]34C)[C@@H]1[C@@H]1C[C@@H]1C2=O [3b,5-Dihydroxy-6b,7b:15b,16b-dimethylene-5b-androstan17-one] |  |  | 183120 RLU | 0.39%
18 | CC/C=C\C/C=C\C/C=C\C/C=C\CC1OC1CCCC(=O)OC (stereo not shown) [5(6)-EpETE methyl ester] | 337400 RLU | 0.93% |  | 
19 | CCCCC/C=C\C\C=C/C=C/C=C/[C@@H](O)[C@@H](O)CCCC(=O)O [5(S),6(R)-DiHETE] | 166040 RLU | 1.66% |  | 

Row | Compound | HSD17B13 Enzymatic Activity Relative Light Units [1] | HSD17B13 Enzymatic Activity Percent Estradiol Control [2] | HSD17B13 Enzymatic Activity Relative Light Units (Steroid Library, 50 μM steroid) | HSD17B13 Enzymatic Activity Percent Estradiol Control (Steroid Library, 50 μM steroid)
20 | CCCCC/C=C\C\C=C/C=C/C=C/[C@H](O)[C@@H](O)CCCC(=O)O [5(S),6(S)-DiHETE] | 309080 RLU | 4.07% |  | 
21 | CCCCC[C@H](O)/C=C/C=C\C/C=C\C=C\[C@@H](O)CCCC(=O)O [5(S),15(S)-DiHETE] | 486600 RLU | 14.86% |  | 
22 | CC/C=C\C/C=C\C/C=C\C/C=C\C=C\[C@@H](O)CCCC(=O)O [5(S)-HEPE] | 429120 RLU | 10.58% |  | 
23 | CCCCC/C=C\C/C=C\C/C=C\C=C\[C@@H]1CCCC(=O)O1 [5(S)-HETE lactone] | 288400 RLU | 0.12% |  | 
24 | CCCCC/C=C\C/C=C\C/C=C\C=C\[C@@H](O)CCCC(=O)O [5(S)-HETE] | 430800 RLU | 10.71% |  | 
25 | CCCCC/C=C\C/C=C\C/C=C\C=C\[C@H](CCCC(=O)O)OO [5(S)-HpETE] | 225600 RLU | −4.55% |  | 
26 | CCCCC/C=C\C/C=C\C/C=C\CC#CCCCC(=O)O [5,6-dehydro Arachidonic Acid] | 210160 RLU | −8.68% |  | 
27 | CCCCC/C=C\C/C=C\C/C=C\C=C\C(=O)CCCC(=O)O [5-OxoETE] | 261280 RLU | −1.90% |  | 
28 | CCCCC/C=C\C[C@@H]1[C@H](/C=C/C(O)CCCC(=O)O)[C@@H](O)C[C@H]1O (stereo partly drawn) [5-iPF2α-VI] | 293200 RLU | 0.80% |  | 
29 | C[C@]12CCC(=O)C[C@@H]1CC[C@@H]1[C@@H]2CC[C@]2(C)C(=O)CC[C@@H]12 [5a-androstanedione] |  |  | 181840 RLU | 0.37%
30 | CC(=O)OC1=CC[C@H]2[C@@H]3CC[C@H]4CC=CC[C@]4(C)[C@H]3CC[C@]12C [5alpha-Androsta-2,16-dien-17-yl acetate] |  |  | 197640 RLU | 0.65%
31 | C[C@]12CCC(=O)C[C@@H]1CC[C@@H]1[C@@H]2C(=O)C[C@]2(C)C(=O)CC[C@@H]12 [5alpha-Androstane-3,11,17-trione] |  |  | 228280 RLU | 1.18%
32 | C[C@]12CCC(=O)C[C@@H]1CC[C@@H]1[C@@H]2[C@@H](O)C[C@@]2(C)[C@H]1CC[C@]2(O)C(=O)CO [5alpha-dihydrocortisol] |  |  | 139720 RLU | −0.36%
33 | CCCCC[C@H](O)/C=C/C=C\C=C\C=C\[C@H](O)[C@@H](O)CCCC(=O)O [6(S)-Lipoxin A4] | 383000 RLU | 7.90% |  | 
34 | CCCCCC(=O)CC[C@@H]1[C@@H](CC(=O)CCCCC(=O)O)[C@@H](O)C[C@H]1O [6,15-diketo-13,14-dihydro Prostaglandin F1α] | 262680 RLU | −1.61% |  | 
35 | CCCCC/C=C\C/C=C\C[C@H]1O[C@H]1C/C=C\CCCC(=O)NCCO [8(9)-EET Ethanolamide] | 446000 RLU | 9.14% |  | 
36 | CCCCC[C@H](O)/C=C/C=C\C=C\[C@@H](O)C/C=C\CCCC(=O)O [8(S),15(S)-DiHETE] | 410440 RLU | 9.19% |  | 
37 | CCCCC/C=C\C/C=C\C=C\[C@@H](O)CCCCCCC(=O)O [8(S)-HETrE] | 412960 RLU | 9.38% |  | 
38 | CC/C=C\C[C@H](O)/C=C/[C@@H]1[C@H](C/C=C\CCCC(=O)O)[C@@H](O)C[C@H]1O [8-iso Prostaglandin F3α] | 361040 RLU | 6.16% |  | 
